Experimental data published in patent US8067424B2, “Selective inhibitors for cyclin-dependent kinases” (Emory University, priority 2007, dated 2011).
Read-outs that look alike come from different tables or passages of the source.

Legend:
Assay type in all cases: biochemical
JNK1 = JNK1 (Homo sapiens, UniProt P45983); assay: Kinase screen: JNK1a1/SAPK1c assay
Description: (§1) Generally, the same procedure was used for all assays. Since the total assay volume was 25.5 microliters, 0.5 microliters of inhibitors at 51× assay concentration were added to the plates before any other addition.
(§2) The basic procedure was to add 0.5 microliters inhibitor/control in DMSO to plate. Fifteen microliters of enzyme/substrate/buffer mix were added and incubated for 5 min. Ten microliters MgATP at the relevant concentration were added and incubated for 30 min. The assay was stopped by adding 5 microliters of 3% orthophosphoric acid. The assay was transferred to a p81 filter plate and read in a scintillation counter of 30 sec/well. Note that this assay procedure was not followed for MKK1, which instead involved a two-step assay, and PKC alpha, which required the addition of lipid vesicles.
JNK1a1/SAPK1c assay: JNK1a1/SAPK1c (5-20 mU diluted in 50 mM Tris pH 7.5, 0.1 mM EGTA, 1 mg/ml BSA, 0.1% b-mercaptoethanol) was assayed against ATF2 (activating transcription factor in a final volume of 25.5 μl in 50 mM Tris pH 7.5, 0.1 mM EGTA, 0.1% b-Mercaptoethanol, ATF2 (3 μM), 10 mM magnesium acetate and 0.02 mM [33P-g-ATP] (500-1000 cpm/pmole) and incubated for 30 min at room temperature. Assays were stopped by addition of 5 μl of 0.5 M (3%) orthophosphoric acid and then harvested onto P81 Unifilter plates with a wash buffer of 50 mM orthophosphoric acid.

EPH-A2 = EPH-A2 (Homo sapiens, UniProt P29317); assay: Kinase screen: EPH-A2 assay; conditions: 10 micromolar compound; for remaining activity at 10 µM: read-out: mean activity remaining (as a percentage of the original activity), EPH A2
EPH-A2, sequence (P29317 24-976, species assumed): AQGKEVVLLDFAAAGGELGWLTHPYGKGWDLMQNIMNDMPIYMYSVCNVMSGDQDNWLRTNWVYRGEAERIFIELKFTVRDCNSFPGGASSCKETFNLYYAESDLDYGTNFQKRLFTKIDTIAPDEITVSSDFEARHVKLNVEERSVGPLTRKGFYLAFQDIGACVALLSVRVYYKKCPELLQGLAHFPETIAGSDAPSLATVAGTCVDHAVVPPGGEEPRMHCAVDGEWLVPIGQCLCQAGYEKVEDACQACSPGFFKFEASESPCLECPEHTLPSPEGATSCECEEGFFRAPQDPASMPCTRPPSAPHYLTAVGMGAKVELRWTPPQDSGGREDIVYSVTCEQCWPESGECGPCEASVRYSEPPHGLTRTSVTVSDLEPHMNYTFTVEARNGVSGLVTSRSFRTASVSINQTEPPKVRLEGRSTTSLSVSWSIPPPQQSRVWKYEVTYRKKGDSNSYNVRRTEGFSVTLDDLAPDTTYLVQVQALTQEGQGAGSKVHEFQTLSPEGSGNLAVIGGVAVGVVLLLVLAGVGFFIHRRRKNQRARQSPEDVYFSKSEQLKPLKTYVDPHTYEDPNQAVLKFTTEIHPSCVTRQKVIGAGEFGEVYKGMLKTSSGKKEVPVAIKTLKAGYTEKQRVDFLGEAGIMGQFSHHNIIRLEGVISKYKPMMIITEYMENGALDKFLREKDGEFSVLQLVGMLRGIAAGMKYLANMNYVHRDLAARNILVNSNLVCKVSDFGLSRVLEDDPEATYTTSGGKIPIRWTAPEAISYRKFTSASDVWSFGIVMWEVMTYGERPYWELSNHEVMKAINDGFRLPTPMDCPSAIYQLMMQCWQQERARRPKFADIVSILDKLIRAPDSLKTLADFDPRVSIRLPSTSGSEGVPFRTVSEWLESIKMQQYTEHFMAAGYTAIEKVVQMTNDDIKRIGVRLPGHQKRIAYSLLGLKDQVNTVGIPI
Description: as §1, §2
(§3) EPH-A2 assay: EPH-A2 (5-20 mU diluted in 50 mM Tris pH 7.5, 0.1 mM EGTA, 1 mg/ml BSA) was assayed against a substrate peptide (Poly Glut Tyr) in a final volume of 25.5 μl containing 50 mM Tris pH 7.5, 0.1 mg/ml substrate peptide, 10 mM magnesium acetate and 0.05 mM [33P-g-ATP] (50-1000 cpm/pmole) and incubated for 30 min at room temperature. Assays were stopped by addition of 5 μl of 0.5 M (3%) orthophosphoric acid and then harvested onto P81 Unifilter plates with a wash buffer of 50 mM orthophosphoric acid.

p38σ MAPK = target: T1, p38σ MAPK (Homo sapiens, UniProt O15264); assay: Kinase screen: SAPK 4/p38d assay
T1 sequence (O15264 1-365): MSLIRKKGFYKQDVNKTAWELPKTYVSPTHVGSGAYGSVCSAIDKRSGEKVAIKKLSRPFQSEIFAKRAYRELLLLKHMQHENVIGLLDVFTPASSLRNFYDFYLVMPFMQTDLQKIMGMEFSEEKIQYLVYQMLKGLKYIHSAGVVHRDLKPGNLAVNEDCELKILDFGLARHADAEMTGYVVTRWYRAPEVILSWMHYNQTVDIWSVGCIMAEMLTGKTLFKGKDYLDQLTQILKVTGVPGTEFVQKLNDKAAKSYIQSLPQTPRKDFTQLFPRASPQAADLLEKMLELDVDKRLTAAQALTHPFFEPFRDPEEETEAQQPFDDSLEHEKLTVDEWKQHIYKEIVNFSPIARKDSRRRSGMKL
Description: as §1, §2
SAPK 4/p38d assay: SAPK 4/p38d (5-20 mU diluted in 50 mM Tris pH 7.5, 0.1 mM EGTA, 0.1 mM Na3VO4, 0.1% b-mercaptoethanol, 1 mg/ml BSA) was assayed against MBP in a final volume of 25.5 μl containing 25 mM Tris pH 7.5, 0.1 mM EGTA, 0.33 mg/ml MBP, 10 mM magnesium acetate and 0.005 mM [33P-g-ATP] (50-1000 cpm/pmole) and incubated for 30 min at room temperature. Assays were stopped by addition of 5 μl of 0.5 M (3%) orthophosphoric acid and then harvested onto P81 Unifilter plates with a wash buffer of 50 mM orthophosphoric acid.

IGF-1R = IGF-1R (Homo sapiens, UniProt P08069); assay: Kinase screen: IGF-1R assay; conditions: 10 micromolar compound; for remaining activity at 10 µM: read-out: mean activity remaining (as a percentage of the original activity), IGF1-R
IGF-1R, sequence (P08069 31-1367, species assumed): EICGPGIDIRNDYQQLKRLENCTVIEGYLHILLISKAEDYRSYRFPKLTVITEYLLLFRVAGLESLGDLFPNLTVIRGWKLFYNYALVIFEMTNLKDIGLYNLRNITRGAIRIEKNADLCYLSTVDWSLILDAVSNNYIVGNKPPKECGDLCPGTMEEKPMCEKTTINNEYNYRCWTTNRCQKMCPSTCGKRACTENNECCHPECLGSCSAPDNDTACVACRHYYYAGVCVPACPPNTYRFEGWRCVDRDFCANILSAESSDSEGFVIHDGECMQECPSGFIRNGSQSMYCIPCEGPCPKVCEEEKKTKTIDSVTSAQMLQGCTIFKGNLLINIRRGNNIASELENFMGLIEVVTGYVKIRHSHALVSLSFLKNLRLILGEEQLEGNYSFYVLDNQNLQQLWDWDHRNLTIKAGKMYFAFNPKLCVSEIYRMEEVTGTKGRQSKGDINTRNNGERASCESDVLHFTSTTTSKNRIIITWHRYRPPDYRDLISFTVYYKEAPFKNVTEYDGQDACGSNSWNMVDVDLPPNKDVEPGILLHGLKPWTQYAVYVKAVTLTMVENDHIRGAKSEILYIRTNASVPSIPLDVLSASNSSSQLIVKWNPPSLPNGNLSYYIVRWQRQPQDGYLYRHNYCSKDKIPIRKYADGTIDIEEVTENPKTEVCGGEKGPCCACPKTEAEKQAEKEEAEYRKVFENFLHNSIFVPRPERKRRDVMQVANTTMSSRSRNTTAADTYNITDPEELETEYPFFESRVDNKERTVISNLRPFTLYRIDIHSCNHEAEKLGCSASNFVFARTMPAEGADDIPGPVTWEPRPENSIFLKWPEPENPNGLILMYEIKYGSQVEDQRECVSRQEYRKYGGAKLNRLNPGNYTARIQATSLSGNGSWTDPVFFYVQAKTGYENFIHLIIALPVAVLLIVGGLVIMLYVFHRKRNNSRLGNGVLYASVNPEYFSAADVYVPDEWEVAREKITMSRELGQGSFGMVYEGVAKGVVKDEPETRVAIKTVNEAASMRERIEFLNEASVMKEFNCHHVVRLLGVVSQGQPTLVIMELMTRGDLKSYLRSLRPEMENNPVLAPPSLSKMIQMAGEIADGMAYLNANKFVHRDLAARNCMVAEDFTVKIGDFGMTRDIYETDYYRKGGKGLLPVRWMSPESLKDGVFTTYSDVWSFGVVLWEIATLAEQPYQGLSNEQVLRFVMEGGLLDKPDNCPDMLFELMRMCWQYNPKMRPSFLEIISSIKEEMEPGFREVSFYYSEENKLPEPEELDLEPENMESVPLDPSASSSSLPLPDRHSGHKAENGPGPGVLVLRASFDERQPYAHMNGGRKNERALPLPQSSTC
Description: as §1, §2
as §3, with “IGF-1R” for “EPH-A2”, “([…]) (SEQ ID NO:” for “(Poly Glut Tyr)”, “300 μM” for “0.1 mg/ml”, “0.005” for “0.05”

BTK = BTK (Homo sapiens, UniProt Q06187); assay: Kinase screen: BTK assay; conditions: 10 micromolar compound; for remaining activity at 10 µM: read-out: mean activity remaining (as a percentage of the original activity), BTK
BTK, sequence (Q06187 whole entry, species assumed): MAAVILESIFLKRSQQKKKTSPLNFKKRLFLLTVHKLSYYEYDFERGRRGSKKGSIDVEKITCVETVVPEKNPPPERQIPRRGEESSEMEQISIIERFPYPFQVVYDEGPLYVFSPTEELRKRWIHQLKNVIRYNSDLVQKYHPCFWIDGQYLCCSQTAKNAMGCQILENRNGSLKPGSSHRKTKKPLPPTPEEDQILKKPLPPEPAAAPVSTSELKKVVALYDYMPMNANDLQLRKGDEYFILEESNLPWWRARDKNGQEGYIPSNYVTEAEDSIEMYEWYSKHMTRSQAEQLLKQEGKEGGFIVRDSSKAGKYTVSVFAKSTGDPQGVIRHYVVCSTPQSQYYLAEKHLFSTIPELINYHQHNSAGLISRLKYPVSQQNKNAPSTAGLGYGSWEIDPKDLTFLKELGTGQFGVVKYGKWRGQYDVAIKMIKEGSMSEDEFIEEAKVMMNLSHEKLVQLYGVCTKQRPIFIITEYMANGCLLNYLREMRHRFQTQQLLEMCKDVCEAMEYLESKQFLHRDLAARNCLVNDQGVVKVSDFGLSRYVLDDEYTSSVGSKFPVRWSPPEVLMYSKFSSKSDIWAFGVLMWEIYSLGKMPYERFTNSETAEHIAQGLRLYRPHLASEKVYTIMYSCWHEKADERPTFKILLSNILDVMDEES
Description: as §1, §2
(50-1000 cpm/pmole) and incubated for 30 min at room temperature. Assays were stopped by addition of 5 μl of 0.5 M (3%) orthophosphoric acid and then harvested onto P81 Unifilter plates with a wash buffer of 50 mM orthophosphoric acid.

FGF-R1 = FGF-R1 (Homo sapiens, UniProt P11362); assay: Kinase screen: FGF-R1 assay; conditions: 10 micromolar compound; for remaining activity at 10 µM: read-out: mean activity remaining (as a percentage of the original activity), FGF-R1
FGF-R1, sequence (P11362 22-822, species assumed): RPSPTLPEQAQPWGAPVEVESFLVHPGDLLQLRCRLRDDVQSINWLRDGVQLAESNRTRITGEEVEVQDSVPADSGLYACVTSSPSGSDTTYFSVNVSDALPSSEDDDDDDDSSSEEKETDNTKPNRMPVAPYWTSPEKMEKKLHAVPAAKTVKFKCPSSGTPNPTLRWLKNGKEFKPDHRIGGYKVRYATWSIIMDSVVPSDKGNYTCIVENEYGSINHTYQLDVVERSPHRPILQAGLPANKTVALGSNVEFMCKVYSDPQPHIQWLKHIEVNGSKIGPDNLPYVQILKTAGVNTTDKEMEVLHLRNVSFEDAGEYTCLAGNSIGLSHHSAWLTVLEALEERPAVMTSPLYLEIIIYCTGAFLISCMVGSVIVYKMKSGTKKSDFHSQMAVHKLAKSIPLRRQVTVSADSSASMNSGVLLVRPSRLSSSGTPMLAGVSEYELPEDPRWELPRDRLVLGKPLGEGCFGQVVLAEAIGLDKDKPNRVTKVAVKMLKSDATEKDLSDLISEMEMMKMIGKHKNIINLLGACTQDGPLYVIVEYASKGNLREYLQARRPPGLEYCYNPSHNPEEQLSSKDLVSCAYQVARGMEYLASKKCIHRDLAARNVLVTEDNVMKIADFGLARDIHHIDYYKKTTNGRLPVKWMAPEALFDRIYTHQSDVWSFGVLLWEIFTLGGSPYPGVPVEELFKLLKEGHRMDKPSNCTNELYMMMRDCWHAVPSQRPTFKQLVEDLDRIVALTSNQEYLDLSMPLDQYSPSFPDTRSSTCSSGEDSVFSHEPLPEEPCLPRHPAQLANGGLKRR
Description: as §1, §2
as §3, with “FGF-R1 assay: FGF-R1” for “EPH-A2 assay: EPH-A2”, “FGF-R1 assay: FGF-R1 (5-20 mU” for “EPH-A2 assay: EPH-A2 (5-20 mU”, “pH 7.5, 1 mg/ml substrate” for “pH 7.5, 0.1 mg/ml substrate”, “acetate and 0.02 mM [33P-g-ATP]” for “acetate and 0.05 mM [33P-g-ATP]”

[1] = 10 micromolar compound, read-out: mean activity remaining (as a percentage of the original activity), JNK1
[2] = 10 micromolar compound, read-out: mean activity remaining (as a percentage of the original activity), p38s MAPK

JNK1, sequence (P45983 1-384 isoform P45983-2, species assumed): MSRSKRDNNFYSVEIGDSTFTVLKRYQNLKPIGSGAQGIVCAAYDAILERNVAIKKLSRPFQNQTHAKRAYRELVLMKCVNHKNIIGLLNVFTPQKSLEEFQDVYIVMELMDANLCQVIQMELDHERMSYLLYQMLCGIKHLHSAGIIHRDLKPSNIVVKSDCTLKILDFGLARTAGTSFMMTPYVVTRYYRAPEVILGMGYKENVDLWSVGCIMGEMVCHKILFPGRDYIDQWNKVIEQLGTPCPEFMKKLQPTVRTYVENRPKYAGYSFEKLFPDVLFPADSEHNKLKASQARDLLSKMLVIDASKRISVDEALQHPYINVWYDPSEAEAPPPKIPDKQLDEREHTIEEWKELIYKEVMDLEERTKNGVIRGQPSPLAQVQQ

Row | SMILES | mean activity remaining (as a percentage of the original activity), JNK1 (JNK1; 10 micromolar compound) | mean activity remaining (as a percentage of the original activity), EPH A2 (EPH-A2) | mean activity remaining (as a percentage of the original activity), p38s MAPK (p38σ MAPK; 10 micromolar compound) | mean activity remaining (as a percentage of the original activity), IGF1-R (IGF-1R) | mean activity remaining (as a percentage of the original activity), BTK (BTK) | mean activity remaining (as a percentage of the original activity), FGF-R1 (FGF-R1) | remaining activity at 10 µM (JNK1; JNK1, 10 μM, read-out: Mean Remaining Enzyme Activity (%)) | remaining activity at 10 µM (p38σ MAPK; p38σ MAPK, 10 μM, read-out: Mean Remaining Enzyme Activity (%)) | remaining activity at 10 µM (JNK1; [1]) | remaining activity at 10 µM (EPH-A2) | remaining activity at 10 µM (p38σ MAPK; [2]) | remaining activity at 10 µM (IGF-1R) | remaining activity at 10 µM (BTK) | remaining activity at 10 µM (FGF-R1)
1 | CC(C)c1cnn2c(NCc3ccccc3F)cc(NCCCCCN)nc12 [ICEC-0232] | 87% | 92% | 78% | 17% | 90% | 82% | – | – | – | – | – | – | – | –
2 | CC(C)c1cnn2c(NCc3ccccc3)cc(NCCCCCCCN)nc12 [BS-181] | – | – | – | – | – | – | 100% | 96% | – | – | – | – | – | –
3 | CC[C@H](CO)Nc1cc(NCc2ccccc2)n2ncc(C(C)C)c2n1 [ICEC0067] | – | – | – | – | – | – | – | – | 98% | 101% | 86% | 63% | 84% | 78%
4 | C=C[C@H](CO)Nc1cc(NCc2ccccc2)n2ncc(C(C)C)c2n1 [ICEC0065] | – | – | – | – | – | – | – | – | 95% | 109% | 86% | 63% | 94% | 87%
5 | CC(C)c1cnn2c(NCc3ccccc3)cc(N[C@@H](CO)[C@H](O)CO)nc12 [ICEC0318, (3S)-3-(7-(Benzylamino)-3-isopropylpyrazolo[1,5-a]pyrimidin-5-ylamino)butane-1,2,4-triol] | – | – | – | – | – | – | – | – | 93% | 116% | 86% | 67% | 91% | 86%
